Experiments:
[1] = healthy male volunteers, iv TCI; for subjects who lost consciousness at 75% of LOC: target 75% of individually determined LOC concentration; for subjects who lost consciousness at 100% of LOC: target 100% of individually determined LOC concentration; for subjects who lost consciousness at 125% of LOC: target 125% of individually determined LOC concentration
Experimental: Twenty volunteers (healthy, right-handed, 19 to 28 years old males) participated in this open, non-randomized study approved by the local ethics committee and the National Agency for Medicines. All subjects gave written informed consent. […] Subjects refrained from using alcohol or any medication for 48 hours before the study and they fasted overnight. No pre-medication was administered prior to study drug administration.
Subjects participated in two separate anesthesia sessions approximately one month apart. The first session was used to establish each subject's individual dose-response characteristics. The second session was used for neuroimaging. Subjects were anesthetized in a similar fashion on the two separate occasions. For each session, the subjects were prepared for the administration of a general anesthetic. In the first session, the individual concentrations for LOC were determined. Subjects were divided into two groups to receive either dexmedetomidine (n=10) or propofol (n=10) intravenous anesthesia via computer-controlled infusion. Once assigned to a particular anesthetic agent, that subject then again received that anesthetic during the neuroimaging session. Each infusion was started at a low rate and was then increased in a step-wise manner at 10 min intervals until LOC was detected. Consciousness was tested at 5 min intervals by asking the subjects to open their eyes. LOC was defined as being unresponsive to this request.
Dexmedetomidine (Precedex 100 μg/ml, Orion, 02200 Espoo, Finland) was administered intravenously using a target controlled infusion (TCI) scheme aiming at escalating pseudo steady-state plasma concentrations every 10 min. A Harvard 22 syringe pump (Harvard Apparatus, South Natick, Mass.) connected to a portable computer running […] software (Steven L. Schafer, M.D., Columbia University Medical Center, 622 W 168th St, PH 5-505 New York, N.Y. 10032-3725, USA) and the pharmacokinetic parameters of Talke were used (P. Talke et al., Anesthesiology 99, 65 (2003)). In the first session, the infusion was started at a target (plasma) concentration of 1.0 ng/ml, followed first by a 0.5 ng/ml target concentration increase and then by subsequent 0.25 ng/ml increases thereafter (i.e. 1.0-1.5-1.75-2.0-2.25-etc. ng/ml) until LOC was achieved.
Propofol (Propofol Lipuro 10 mg/ml, B. Braun Melsungen AG, Pfieffewiesen, D-34212 Melsungen, Germany) was administrated with the same infusion system and scheme as dexmedetomidine, using the Marsh pharmacokinetic model (B. Marsh et al., Br J Anaesth 67, 412 (1991)). In the first session, the infusion was started at a target (plasma) concentration of 1.0 μg/ml, followed first by a 0.5 μg/ml target concentration increase and then subsequent 0.25 μg/ml increases thereafter (i.e. 1.0-1.5-1.75-2.0-2.25-etc. μg/ml) until LOC was achieved.
In the second (neuroimaging) session of the study, the computer controlled drug infusion was repeated for each subject by aiming at their individually determined drug concentrations 50, 75 and 100% of the LOC concentration. Consciousness was tested similarly to the first session. If the LOC concentration defined in the first session of the study was not sufficient to produce LOC in the second session, the drug infusion was continued and an additional 25% target concentration increment was added to the rate. Concentrations were adjusted at 10 min intervals with simultaneous imaging at each level until LOC was detected.

[2] = after LOC, continuous infusion of the drug
Experimental: After LOC was reached and neuroimaging completed at that level of anesthesia, those in the propofol infusion group had the infusion terminated and the subjects were allowed to emerge from anesthesia. During the emergence process, consciousness was tested at 1 min intervals until ROC was detected. ROC was defined as eye opening in response to the command to do so. […] PET measurements were thus obtained during the four conditions: baseline, sedation, LOC and ROC for 17 subjects.

## Cc1cccc([C@H](C)c2cnc[nH]2)c1C [dexmedetomidine, Dexmedetomidine]
[1]; target 50% of individually determined LOC concentration
  subjects who lost consciousness at 50% of the previously measured LOC concentration value: 1
[1]
  subjects who lost consciousness at 75% of LOC: 1
  subjects who lost consciousness at 100% of LOC: 3
  subjects who lost consciousness at 125% of LOC: 5
[2]
  restoration of consciousness by stimulation during drug infusion: gentle tactile stimulation and/or loud voice was sufficient to restore consciousness

## CC(C)c1cccc(C(C)C)c1O [propofol, Propofol]
[1]
  subjects who lost consciousness at 75% of LOC: 2
  subjects who lost consciousness at 100% of LOC: 6
  subjects who lost consciousness at 125% of LOC: 1

Reference: patent US20120083647A1, “METHOD FOR CHANGING AN INDIVIDUAL'S STATE OF CONSCIOUSNESS” (priority 2010, published 2012)
